Test results as given in patent US12428377B2, “Sodium-hydrogen exchanger 3 inhibitor compounds” (Eli Lilly and Company, priority 2019, dated 2025).

Biological target: T1, human NHE3 (Homo sapiens, UniProt P48764)
T1 construct: myc; expressed in transfected cells
T1 sequence (P48764 26-834): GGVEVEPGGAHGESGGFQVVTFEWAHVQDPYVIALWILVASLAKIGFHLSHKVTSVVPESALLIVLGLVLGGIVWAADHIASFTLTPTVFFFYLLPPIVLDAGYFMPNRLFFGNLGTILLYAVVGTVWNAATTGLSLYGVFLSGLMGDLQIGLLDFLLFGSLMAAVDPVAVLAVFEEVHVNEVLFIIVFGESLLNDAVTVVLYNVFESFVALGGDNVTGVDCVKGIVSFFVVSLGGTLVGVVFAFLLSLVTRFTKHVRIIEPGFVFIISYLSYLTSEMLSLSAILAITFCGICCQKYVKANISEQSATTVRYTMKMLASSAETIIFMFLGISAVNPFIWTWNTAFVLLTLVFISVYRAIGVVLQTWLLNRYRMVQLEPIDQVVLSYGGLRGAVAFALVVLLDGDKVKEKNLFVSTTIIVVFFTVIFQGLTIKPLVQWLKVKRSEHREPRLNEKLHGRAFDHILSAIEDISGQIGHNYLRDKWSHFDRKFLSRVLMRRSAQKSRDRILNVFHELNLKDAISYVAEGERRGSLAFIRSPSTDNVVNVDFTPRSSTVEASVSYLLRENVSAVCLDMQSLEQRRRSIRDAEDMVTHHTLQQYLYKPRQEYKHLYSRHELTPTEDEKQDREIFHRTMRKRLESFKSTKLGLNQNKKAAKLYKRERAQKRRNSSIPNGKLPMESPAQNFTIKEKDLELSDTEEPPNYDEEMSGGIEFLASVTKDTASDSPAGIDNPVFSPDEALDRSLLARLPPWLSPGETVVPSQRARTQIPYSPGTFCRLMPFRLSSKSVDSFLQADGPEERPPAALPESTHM
Experiment: In vitro NHE3 inhibition activity (intracellular pH recovery, BCECF-AM, NHD C8 cells overexpressing human NHE3)
Format: cell-based
Details: geometric mean of individual IC50
From the text: In Vitro NHE3 Inhibition Activity
To create an NHE3 assay, cells selectively expressing NHE3 are generated by overexpressing human NHE3 in an endogenously NHE-deficient cell line. The NHE-deficient cell line is created by chemical-induced mutagenesis. After the mutagenesis, NHE-deficient cells are selected by subjecting lithium (Li) loaded cells to an acidic extracellular environment. Under these conditions, NHE exchanges intracellular Li^+ for extracellular protons, thus only NHE-deficient cells can avoid a toxic intracellular acidosis and survive.
An NHE-deficient cell line, NHD C8, is generated by mutagenesis and selection from the cell line Dede (ATCC® CCL-39™). The mutagenesis is induced by treating Dede CCL-39 cells with EMS (Sigma-Aldrich) in growth media at a final concentration of 500 μg/ml for 20 h. […]
To measure NHE activity, the intracellular pH of the cells is reduced by addition of NH4Cl. The sodium-dependent intracellular pH change is then measured by the intracellular pH-sensitive fluorescein dye, BCECF-AM (Molecular Probes-ThermoFisher Scientific). […] The plate is immediately read for fluorescent intensity at an excitation wavelength of 505 nm and emission wavelength of 550 nm. […]

CN1Cc2c(Cl)cc(Cl)cc2[C@H](c2cccc(S(=O)(=O)NCCOCCOCCN/C(=N\C(N)=O)NCCCCN/C(=N/C(N)=O)NCCOCCOCCNS(=O)(=O)c3cccc([C@@H]4CN(C)Cc5c(Cl)cc(Cl)cc54)c3)c2)C1.Cl.Cl [Example 2, [[4-[[N′-Carbamoyl-N-[2-[2-[2-[[3-[(4S)-6,8-dichloro-2-methyl-3,4-dihydro-1H-isoquinolin-4-yl]phenyl]sulfonylamino]ethoxy]ethoxy]ethyl]carbamimidoyl]amino]butylamino]-[2-[2-[2-[[3-[(4S)-6,8-dichloro-2-methyl-3,4-dihydro-1H-isoquinolin-4-yl]phenyl]sulfonylamino]ethoxy]ethoxy]ethylamino]methylene]urea dihydrochloride]
IC50: 5.76 nM
